Key:
[1] = test system: myeloid dendritic cells (mDCs); experiment: Activation of blood myeloid dendritic cells (CD80/HLA-DR staining, flow cytometry); assay type: cell-based, human; conditions: two donors; 1 μM IRM or 3 μM CpG2216, 16-24 hours; HLA-DR positive with increased CD80; FIG. 1
Experimental: The blood myeloid dendritic cells (mDC) were isolated from the BDCA-4 negative cell fraction using the Miltenyi Microbead technology system (Miltenyi BioTec, Auburn, Calif.). Cells were resuspended in 4° C. separation buffer (PBS- pH 7.2, 0.5% BSA-2.5 gm, 2 mM 0.5M EDTA) at 20 μl per 10^7 total cells. […] The cells were resuspended in 500 μL of separation buffer per 10^8 total cells. […] BDCA-1^+mDCs were enriched using the Miltenyi Automacs POSSELD software. The cells retained in the column were eluted into a sterile 50 mL polystyrene conical tube.
(§1) Compounds, reconstituted in dimethyl sulfoxide (DMSO, sterile cell culture grade, Sigma Chemical Co., St. Louis, Mo.) were added at 2× their final concentration to a 96-well flat-bottom sterile tissue culture polystyrene plate (Benton Dickinson Labware, Franklin Lakes, N.J.). Cells were then added at 2× the final concentration (final cell concentration is 1×10^6 cells/mL). Plates were incubated for 16-24 hours at 37° C., 5% CO2. After incubation, plates were centrifuged at 1000 RPM for 10 minutes at 25° C. Supernatants were transferred to a 0.75 mL sterile polypropylene Matrix box (Matrix, Hudson, N.Y.) and stored at −20° C. for future cytokine analysis.

[2] = test system: plasmacytoid dendritic cells (pDCs); experiment: Activation of plasmacytoid dendritic cells (CD80/HLA-DR staining, flow cytometry); assay type: cell-based, human; conditions: two donors; 1 μM IRM or 3 μM CpG2216, 16-24 hours; HLA-DR positive with increased CD80; FIG. 2
Experimental: The cells were resuspended in 500 μL of separation buffer per 10^8 total cells. […] The cells retained in the column were eluted into a sterile 50 mL polystyrene conical tube.
as §1

CCOCc1nc2c(N)nc3c(c2n1CC(C)(C)O)CCCC3 [IRM16, 4-amino-2-ethoxymethyl-α,α-dimethyl-6,7,8,9-tetrahydro-1H-imidazo[4,5-c]quinoline-1-ethanol]
activation of myeloid dendritic cells (mDCs) in vitro [1]: activated
activation of plasmacytoid dendritic cells (pDCs) in vitro [2]: activated

Reference: US20040171086A1, “Selective modulation of TLR-mediated biological activity” (3M Innovative Properties Company, priority 2003, published 2004)
